Consider 12 compounds from patent US9884874B2, “Bromodomain-inhibiting compounds and pharmaceutical composition comprising same for preventing or treating a cancer” (KAINOS MEDICINE, INC., priority 2014, dated 2018).

Molecules are shown by their SMILES.

In one data set the target is human BRD4 bromodomain 1 (Homo sapiens (Human), UniProt O60885). Description: Bromodomain binding assay (BRD4 Alpha-screen). To be noted: acetylated histone H4 peptide. The procedure: Bromodomain binding assays were carried out in Reaction Biology (PA, USA) to test the degrees of the inventive compounds in inhibiting the human BRD4 bromodomain 1 by Alpha-screen assay method.
Recombinant human BRD4 bromodomain 1 expressed in E. coli with N-terminal His-tag was used as the enzyme target.
A synthetic peptide ([…]-GSGSK-biotin) containing 1 to 21th amino acids of histone H4 acetylated at lysine 5, 8, 12 and 16 and conjugated to biotin was purchased from Millipore.
BRD4-1 (44 to 170th amino acids; Genbank Accession # NM_058243) was expressed in E. coli with N-terminal His-tag (see, Ni-NTA spin Kit Handbook (Qiagen), second edition, January, 2008). Nickel-Chelate ALPHA acceptor beads (Perkin Elmer) were used to specifically bind BRD4-1, and ALPHA streptavidin donor beads (Perkin Elmer) were used because they specifically recognized the biotinylated H4 peptide.
BRD binding assays were performed in a mixture comprising 50 mM Hepes (pH7.5), 100 mM NaCl, 0.05% CHAPS, 0.1% BSA, and 1% DMSO. After an assay reaction time of 60 min at 25° C., binding was measured with streptavidin donor beads and nickel-chelate acceptor beads. ALPHA signal was detected on Enspire (Ex/Em=680/520-620 nm). IC50 values were calculated from the fit of the dose-response curves. All IC50 values represent geometric mean values of a minimum of four determinations. These assays generally produced results within 3-fold of the reported mean.
(Bead proximity is the source of the signal in Alpha formats.)

The test system of data set [1] is LnCAP (human prostatic adenocarcinoma cell line). Description: Anti-proliferative activity test (CellTiter-Glo), LnCAP. Type of data set: cell-based. To be noted: first value of LnCAP/MV4-11 cell, read-out: Cell proliferation IC50 (LnCAP). Here is the method: (§1) IC50 (uM) of the compounds obtained in Examples 1 to 18 against hematological cancer cells and solid tumors was measured for identifying anti-proliferative activities.
(§2) A human prostatic adenocarcinoma cell line, LnCAP (ATCC®, CRL-1740) and human leukemia cell line MV4-11 (ATCC®, CRL-9591) were used to test the degrees of the compounds 1 to 18 in inhibiting the cancer cell growth. The testing cell concentration was adjusted to 6.7×10^3 cells/ml with a culture medium supplemented with 10% FBS, in the temperature of 37° C., 5% CO2 and 95% humidity. Culture media and FBS were purchased from GIBCO. 90 μL of cell suspensions thus obtained was added to two 96-well plates with the final cell density of 600 cells/well, followed by addition of 10 μL of culture medium to each well of plate. The plates were incubated overnight in a humidified incubator at 37° C. with 5% CO2.
(§3) Compounds 1 to 18 were each dissolved with dimethylsulfoxide (DMSO) or phosphate buffer solution (PBS) as a stock solution, and 200× solutions of test compound (2 mM) using DMSO were prepared. Then, the DMSO solution thus obtained was diluted 20-fold with culture medium or PBS to obtain 10× working solution. 10 μL of 10× working solution (drug solution) was dispensed to each well (triplicate for each concentration). The final concentration of DMSO in culture medium was 0.5% [v/v].
(§4) Cell viability was determined using CellTiter-Glo® (CTG) assay. 100 μL of CellTiter-Glo® was added to the equal volume of the cultured cells to read luminescence in EnVision Multi Label Reader.

Data set [2] concerns MV4-11 (human leukemia cell line). As to the kind of experiment: Anti-proliferative activity test (CellTiter-Glo), MV4-11. Format: cell-based. The settings on record: second value of LnCAP/MV4-11 cell, read-out: Cell proliferation IC50 (MV4-11). The procedure: as §1, §2, §3, §4
The nature of data set [3]: Human liver microsomal stability/clearance. Format: in vitro ADME. Here is the method:
(§5) Human and mouse liver microsomal clearance assays were carried out in CROWN Biosciences (Taicang, China). The human liver microsomes (Cat No. X008067, Lot No. KQB) and mouse liver microsomes (Cat No. M1000, Lot No. 1210302) were purchased from Celsis and Xenotech, respectively.
(§6) 5 μL of test compound stock solution was diluted with 495 μL of 1:1 Methanol/Water (final concentration: 100 μM, 50% MeOH) and combined with 534 μL of the respective liver microsome solution (final concentration: 1.111 μM, 0.555% MeOH). The final concentration of the liver microsome solution was 0.7 mg protein/mL.
(§7) Incubations of the liver microsome solutions were performed in a 96 well plate at 37° C. 90 μL of the liver microsome solutions were added to Blank, and 90 μL of working solution of the test compound was added to all plates except the Blank.
(§8) All plates thus obtained were warmed in water bath at 37° C. for 10 min, and 10 μL of NADPH co-factor solution comprising 42 mg of β-nicotinamide adenine dinucleotide phosphate (Sigma Cat. No. N0505 Lot 020M7009V), 84 mg of isocitric acid (Sigma Cat. No. 11252 Lot 119K1099) and 0.478 mL of isocitric dehydrogenase (Sigma Cat. No. 12002 Lot 086K7055, 15 units/mg protein, warmed in water bath at 37° C. for 5 min was added to the plates. The resulting plates were incubated at 37° C. in the following order: T60 (The test compounds were incubated with the liver microsomal solution and NADPH for 60 min at 37° C.), T30 (such as for 30 min.), and T10 (such as for 10 min.). 300 μL of a cold (4° C.) stop solution (acetonitrile (ACN) including 500 nM of tolbutamide as internal standard) and 10 μL of NADPH co-factor solution to starting plate (T0: 100% of the parent compound without any reaction) were added to the plates. The reaction was stopped by adding 300 μL of the cold (4° C.) stop solution to the other plates in the following order: T10 first, then T30 and T60.
(§9) The samples were centrifuged at 4,000 rpm for 20 min and transferred to Bioanalytical Services for liquid chromatography-mass spectrometry (LC-MS)/MS (Waters UPLC/API 4000, 10 μL injection) analysis.

Data set [4] can be described thus: Mouse liver microsomal stability/clearance. Type of data set: in vitro ADME. The procedure:
as §5, §6, §7, §8, §9
Background: Liver microsomes are vesicles of endoplasmic reticulum, rich in cytochrome P450 enzymes.

Where [5] appears, read: human liver microsomes, first value of Human/Mouse cell, read-out: Liver microsomal clearance (Human).
Where [6] appears, read: mouse liver microsomes, second value of Human/Mouse cell, read-out: Liver microsomal clearance (Mouse).

As for `CCCS(=O)(=O)OC[C@@H]1N=C(c2ccc(Cl)cc2)c2cc(OC)ccc2-n2c(C)nnc21` [Compound 3, (R)-(6-(4-chlorophenyl)-8-methoxy-1-methyl-4H-benzo[f][1,2,4]triazolo[4,3-a][1,4]diazepin-4-yl)methyl propane-1-sulfonate], the results for the IC50 (at human BRD4 bromodomain 1; in data set [1]; in data set [2]) were 390 nM, 830 nM and 1810 nM, respectively. Also, the microsomal CLint at 1 µM in data set [3] (setting [5]) turned out to be 71.3 µL/min/mg; in data set [4] (setting [6]), 39.7 µL/min/mg.

As for `COc1ccc2c(c1)C(c1ccc(Cl)cc1)=N[C@@H](COS(=O)(=O)C1CC1)c1nnc(C)n1-2` [Compound 4, (R)-(6-(4-chlorophenyl)-8-methoxy-1-methyl-4H-benzo[f][1,2,4]triazolo[4,3-a][1,4]diazepin-4-yl)methyl cyclopropanesulfonate], the results for the IC50 (at human BRD4 bromodomain 1; in data set [1]; in data set [2]) were 420 nM, 130 nM and 690 nM, respectively. Also, the microsomal CLint at 1 µM in data set [3] (setting [5]) came out at 6.3 µL/min/mg; in data set [4] (setting [6]), 8.9 µL/min/mg.

Compound `COc1ccc2c(c1)C(c1ccc(Cl)cc1)=N[C@@H](COS(=O)(=O)c1ccccc1)c1nnc(C)n1-2` [Compound 5, (R)-(6-(4-chlorophenyl)-8-methoxy-1-methyl-4H-benzo[f][1,2,4]triazolo[4,3-a][1,4]diazepin-4-yl)methyl benzenesulfonate] came in with an IC50 at human BRD4 bromodomain 1 of 900 nM.

For `Cc1nnc2n1-c1ccccc1C(c1ccc(Cl)cc1)=N[C@H]2COS(C)(=O)=O` [Compound 6, (R)-(6-(4-chlorophenyl)-1-methyl-4H-benzo[f][1,2,4]triazolo[4,3-a][1,4]diazepin-4-yl)methyl methanesulfonate], the IC50 on human BRD4 bromodomain 1 turned out to be 1410 nM.

Take `COc1ccc2c(c1)C(c1ccc(Cl)cc1)=N[C@@H](COS(=O)(=O)N(C)C)c1nnc(C)n1-2` [Compound 9, (R)-(6-(4-chlorophenyl)-8-methoxy-1-methyl-4H-benzo[f][1,2,4]triazolo[4,3-a][1,4]diazepin-4-yl)methyl dimethylsulfamate]: the IC50 at human BRD4 bromodomain 1 was 280 nM; in data set [1], 1900 nM; in data set [2] it was 1490 nM. For the same compound, the microsomal CLint at 1 µM came to 126 µL/min/mg in data set [3] (setting [5]) and 86 µL/min/mg in data set [4] (setting [6]).

Turning to `CNS(=O)(=O)OC[C@@H]1N=C(c2ccc(Cl)cc2)c2cc(OC)ccc2-n2c(C)nnc21` [Compound 10, (R)-(6-(4-chlorophenyl)-8-methoxy-1-methyl-4H-benzo[f][1,2,4]triazolo[4,3-a][1,4]diazepin-4-yl)methyl methylsulfamate], the IC50 at human BRD4 bromodomain 1 is 400 nM; in data set [1], 570 nM; in data set [2], 350 nM. Further, the results for the microsomal CLint at 1 µM in data set [3] (setting [5]) and in data set [4] (setting [6]) were 29 µL/min/mg and 21 µL/min/mg, respectively.

Turning to `Cc1nnc2n1-c1ccc(-c3cnn(CC(N)=O)c3)cc1C(c1ccc(Cl)cc1)=N[C@H]2COS(C)(=O)=O` [Compound 12, (R)-(8-(1-(2-amino-2-oxoethyl)-1H-pyrazol-4-yl)-6-(4-chlorophenyl)-1-methyl-4H-benzo[f][1,2,4]triazolo[4,3-a][1,4]diazepin-4-yl)methyl methanesulfonate], the results for the IC50 (on human BRD4 bromodomain 1; in data set [1]; in data set [2]) were 110 nM, 44000 nM and 1070 nM, respectively. In addition, the microsomal CLint at 1 µM in data set [3] (setting [5]) is 5.6 µL/min/mg; in data set [4] (setting [6]), 6.9 µL/min/mg.

`Cc1nnc2n1-c1ccc(-c3cnn(CC(=O)N(C)C)c3)cc1C(c1ccc(Cl)cc1)=N[C@H]2COS(C)(=O)=O` [Compound 13, (R)-(6-(4-chlorophenyl)-8-(1-(2-(dimethylamino)-2-oxoethyl)-1H-pyrazol-4-yl)-1-methyl-4H-benzo[f][1,2,4]triazolo[4,3-a][1,4]diazepin-4-yl)methyl methanesulfonate]: the IC50 on human BRD4 bromodomain 1 was determined as 110 nM; in data set [1], 430 nM; in data set [2], 290 nM. In addition, the microsomal CLint at 1 µM in data set [3] (setting [5]) was found to be 12.3 µL/min/mg; in data set [4] (setting [6]) it was 7.4 µL/min/mg.

In turn, `Cc1nnc2n1-c1ccc(C(=O)NCCO)cc1C(c1ccc(Cl)cc1)=N[C@H]2COS(C)(=O)=O` [Compound 14, (R)-(6-(4-chlorophenyl)-8-((2-hydroxyethyl)carbamoyl)-1-methyl-4H-benzo[f][1,2,4]triazolo[4,3-a][1,4]diazepin-4-yl)methyl methanesulfonate] showed an IC50 on human BRD4 bromodomain 1 of 380 nM. In addition, the microsomal CLint at 1 µM in data set [3] (setting [5]) was determined as 8.3 µL/min/mg; in data set [4] (setting [6]) it was 6.3 µL/min/mg.

In turn, `Cc1sc2c(c1C)C(c1ccc(Cl)cc1)=N[C@@H](COS(N)(=O)=O)c1nnc(C)n1-2` [Compound 16, (R)-(4-(4-chlorophenyl)-2,3,9-trimethyl-6H-thieno[3,2-f][1,2,4]triazolo[4,3-a][1,4]diazepin-6-yl)methyl sulfamate] displayed an IC50 at human BRD4 bromodomain 1 of 250 nM. Also, the microsomal CLint at 1 µM in data set [3] (human, microsomes) stood at 10 µL/min/mg; in data set [4] (mouse, microsomes), 9 µL/min/mg.

For `Cc1sc2c(c1C)C(c1ccc(Cl)cc1)=N[C@@H](COS(=O)(=O)N(C)C)c1nnc(C)n1-2` [Compound 17, (R)-(4-(4-chlorophenyl)-2,3,9-trimethyl-6H-thieno[3,2-f][1,2,4]triazolo[4,3-a][1,4]diazepin-6-yl)methyl dimethylsulfamate], the IC50 on human BRD4 bromodomain 1 turned out to be 900 nM. For the same compound, the microsomal CLint at 1 µM in data set [3] (human, microsomes) was 171 µL/min/mg; in data set [4] (mouse, microsomes) it was 138 µL/min/mg.

For `CNS(=O)(=O)OC[C@@H]1N=C(c2ccc(Cl)cc2)c2c(sc(C)c2C)-n2c(C)nnc21` [Compound 18, (R)-(4-(4-chlorophenyl)-2,3,9-trimethyl-6H-thieno[3,2-f][1,2,4]triazolo[4,3-a][1,4]diazepin-6-yl)methyl methylsulfamate], the IC50 at human BRD4 bromodomain 1 amounted to 160 nM. Besides, the microsomal CLint at 1 µM was found to be 51 µL/min/mg in data set [3] (human, microsomes) and 49 µL/min/mg in data set [4] (mouse, microsomes).
